Common to all, as to assay: NCI tumour cell line growth inhibition, 48 h
Test [1] has as its system A498 renal.
The subject of test [2] is BT-549 breast.
The subject of test [3] is HS 578T breast.
For test [4], the system named is MDA-MB-231 breast.
Test [5] concerns SF-295 CNS.
Test [6] concerns SNB-75 CNS.
In test [7] the test system is SR leukemia.
Test [8] relates to T-47D breast.
Test [9] concerns DLD-1 colon.
Test [10] deals with DMS 273 small cell lung.
The test system of test [11] is KM20L2 colon.
The test system of test [12] is M19-MEL melanoma.
Test [13] concerns SNB-78 CNS.

We go through 16 compounds from PubChem BioAssay (NCI).

Structures are written as SMILES.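 Results reflect a 48-hour exposure of cells in 96-well plates to compound at five concentrations. At the GI50, growth is halved. TGI marks complete inhibition of growth.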

As for `NCCNCCNc1ccc(NCCNCCN)c2c1C(=O)c1c(O)ccc(O)c1C2=O`, the TGI in [1], in [2], in test [3], in test [4], in test [5] and in [6] was greater than 100 µM each time. The same compound yielded a TGI in test [7] of 23.8 µM.
As for `COC(=O)/C=C1\CCCN1CCc1cc2c(cc1CC#N)OCO2`, the TGI in [1] is 80.2 µM; in test [2], greater than 100 µM; in test [3] it was greater than 100 µM; in test [4] it was greater than 100 µM; in [5], greater than 100 µM; in test [6], 66.8 µM. The TGI in test [7] and in test [8] was greater than 100 µM each time.
Regarding `COC(=O)c1ccccc1C1=C([N+](=O)[O-])C(c2cccc(Br)c2)C(C#N)=C(N)O1` (stereo not given), the TGI in test [3] is 56.9 µM; in test [4], greater than 100 µM; in [5] it was greater than 100 µM; in test [6] it was 92.6 µM; in test [7] it was greater than 100 µM; in test [8], 84.6 µM.
For the compound `Nc1nc(OCC2CCCCC2)c2[nH]cnc2n1`, the TGI in test [1] is 54.4 µM; in test [2] it was greater than 72.9 µM; in test [3], greater than 44.5 µM; in test [4] it was greater than 100 µM; in test [5], greater than 75.6 µM; in test [6], greater than 81 µM. Besides, the TGI in [7] was greater than 59.1 µM; in test [8], 30 µM.
`O=C(CSc1nc2ccc(I)cc2c(=O)n1Cc1ccccc1)NN1C(=O)c2ccccc2C1=O`: the TGI in test [1] amounted to 35.7 µM; in test [2], 36.2 µM; in [3] it was 43.1 µM; in [4] it was 32 µM; in [5] it was 29.4 µM; in test [6], 21.8 µM. Also, the TGI in test [7] was greater than 100 µM; in [8], 50 µM.
In the case of `CCSc1nc(-c2cccs2)nc2ccc(I)cc12`, the TGI in test [2] was greater than 100 µM; in test [5], greater than 100 µM; in test [6] it was greater than 100 µM; in test [7], greater than 100 µM; in test [8], 6.88 µM.
As for `CC(=O)OCC1OC(Oc2cc(C)c(O)cc2C/C=C(\C)CC/C=C(\C)C[C@@H](C=C(C)C)OC(C)=O)C(O)C(OC(C)=O)C1OC(C)=O` (stereo not given in full), the TGI in [1] was 41.9 µM; in [2], greater than 50 µM; in test [3], 39.2 µM; in test [4], greater than 50 µM; in test [5], greater than 50 µM; in [6] it was 48.2 µM. In addition, the TGI in test [8] came out at 30.7 µM.
Consider `COC(=O)NC1C(C)OC(OC2C/C=C(/C)C3C=CC4C(OC5CC(OC6CC(OC7CC(O)C(O)C(C)O7)C(OC7CC(O)C(OC)C(C)O7)C(C)O6)C(O)C(C)O5)C(C)CC(C)C4C3(C)/C(O)=C3\C(=O)OC4(CC(C)C(CO)=CC4/C=C\2C)C3=O)CC1(C)[N+](=O)[O-]` (stereo not given), for which the TGI is 57.9 µM in test [1]; 89.5 µM in test [2]; greater than 100 µM in test [3]; 40.2 µM in test [4]; 53.2 µM in [5]; 16.7 µM in test [6]. Also, the values for the TGI in [7] and in test [8] were 24.2 µM and 25 µM, respectively.
Consider `C[n+]1c2ccccc2c(CNC(CS)C(=O)O)c2ccccc21` (stereo not given), for which the TGI in test [1] was 53.8 µM; in test [9], greater than 100 µM; in [10], 57.3 µM; in test [11], 82 µM; in [12], 90.6 µM; in [5], 63.4 µM. In addition, the TGI in test [6] is 47.7 µM; in [13], greater than 100 µM; in [7], 32.4 µM.
Regarding `O=c1c2cc(S(=O)(=O)O)ccc2nc(COc2ccc(Oc3ccc(Cl)cc3Cl)cc2)n1C(=S)Nc1ccc(Cl)cc1`, the TGI in test [1] was 52.5 µM; in [2], 45.2 µM; in test [3], 44.8 µM; in test [5], 39.6 µM; in test [6], 41.5 µM; in test [7] it was 22.9 µM. Also, the TGI in test [8] is greater than 100 µM.
On to `CCCCCCCN(CCCCCCC)CC(O)c1cc2ccccc2c2cc(Br)ccc12` (stereo not given), for which the TGI is greater than 100 µM in test [1]; greater than 100 µM in [4]; 93.9 µM in test [6]; greater than 100 µM in test [7]; greater than 100 µM in test [8].
`O=C(NC(Cc1ccc(I)cc1)C(=O)O)c1ccc(Cl)cc1` (stereo not given): the TGI in test [1], in test [9], in test [10], in [11], in [12] and in test [5] was greater than 100 µM each time. For the same compound, the TGI in [6] and in test [13] was greater than 100 µM each time.
As for `N=C(N)SCc1cccc([N+](=O)[O-])c1`, the TGI in test [1] is greater than 74 µM; in test [9], 97.6 µM; in [10] it was greater than 100 µM; in test [11], greater than 90.6 µM; in test [12], greater than 100 µM; in [5] it was greater than 100 µM. Also, the TGI was 89 µM in test [6] and greater than 100 µM in test [13].
Regarding `CC1(O)COCCCCOc2c(CN)cccc2NC(=O)c2nc(cnc2N)-c2ccc(cc2)S(=O)(=O)C(C)(C)C1` (stereo not given), the GI50 is 0.0163 µM in [1]; 1.45 µM in test [2]; 1.37 µM in [4]; 1.43 µM in test [5]; 0.17 µM in test [6]; less than 0.01 µM in test [7]. Moreover, the GI50 in test [8] is 1.44 µM. The TGI is 1.43 µM in [1]; 2.91 µM in test [2]; 2.82 µM in [4]; 2.84 µM in test [5]; 1.94 µM in test [6]; 0.391 µM in test [7]. The TGI in test [8] stood at 3.27 µM.
Take `Oc1ccc(-c2nc3cc(F)ccc3s2)cc1`: the TGI in test [2] was 60.6 µM; in test [5], 48.6 µM; in [7], 16 µM; in [8], 33.7 µM.
On to `CO/N=C(\C)c1cccc(Nc2nc3ccccc3c3occc23)c1`, for which the TGI was found to be 17.3 µM in test [1]; 26.8 µM in [2]; 27.2 µM in test [3]; 22.8 µM in test [4]; 25.9 µM in [5]; 29.1 µM in [6]. The TGI turned out to be 34.2 µM in test [7] and 31.3 µM in test [8].
